Reference: patent US11542295B2, “Use of 20-hydroxyecdysone and the derivatives thereof in the treatment of myopathies” (BIOPHYTIS, priority 2017, dated 2023)

What was measured:
[1] = test system: C57BL10 mdx mice (mouse model of Duchenne muscular dystrophy); test: Exertion tolerance test (forced motorised treadmill, maximum distance travelled); assay type: in vivo; conditions: 50 mg/kg*day per os, two months of treatment
Experimental: Twelve-week-old […] gene pool (wild mice referred to as “C57” in the figures) and […] mdx (mouse model of Duchenne muscular dystrophy, referred to as “mdx” in the figures) male mice, produced at Charles Rivers, were used. Two groups of mdx were chronically exposed per os either to BIO101 (number of mice n=9) or to BIO103 (number of mice n=9) at a dose of 50 mg/kg*day. A group of C57 mice (number of mice n=5) and a group of mdx mice (number of mice n=15) received the vehicle, i.e. no treatment. The animals of all of the groups were tested for their functional capacity (exertion tolerance test) after two months of treatment. The exertion tolerance test consists of measuring the maximum distance travelled (in-toto activity; FIGS. 1A and 1B). Furthermore, measurements of the maximum absolute isometric strength of the tibialis anterior muscle (in-situ activity; FIGS. 2A and 2B) were made after two months of treatment. The two-month oral treatment consists of force-feeding for five days a week and in drinking water two days a week. The exertion tolerance test is a forced motored treadmill exercise. It is a non-invasive method for assessing in-toto skeletal function. It is gold standard method in the field (Ferry et al. 1992, 1993; Hadj-Said et al. 2012). The acclimatisation period of the animals is at least 48 hours prior to the session during which the maximum running distance is measured. During the test, the mouse is placed in a running corridor on a motorised treadmill which enables a exercise controlled by the tester in the intensity and duration thereof. The treadmill ends with a horizontal grid which administers an electric shock (0.4 mA) if the animal is in contact for more than one second with the grid. The running session starts with a 2-minute warm-up period during which the speed is increased from 0 to 20 cm/s. Subsequently, the running speed is increased by 5 cm/s every 10 minutes up to the limit of the peak capacities of the mouse. When it is subjected to 5 shocks in less than 10 seconds, the test is stopped. The distance travelled is noted.

[2] = test system: tibialis anterior muscle of C57BL10 mdx mice; test: Maximum absolute isometric strength of the tibialis anterior muscle (in situ); assay type: in vivo, mouse; conditions: 50 mg/kg*day, two months of treatment
Experimental: Twelve-week-old […] gene pool (wild mice referred to as “C57” in the figures) and […] mdx (mouse model of Duchenne muscular dystrophy, referred to as “mdx” in the figures) male mice, produced at Charles Rivers, were used. Two groups of mdx were chronically exposed per os either to BIO101 (number of mice n=9) or to BIO103 (number of mice n=9) at a dose of 50 mg/kg*day. A group of C57 mice (number of mice n=5) and a group of mdx mice (number of mice n=15) received the vehicle, i.e. no treatment. The animals of all of the groups were tested for their functional capacity (exertion tolerance test) after two months of treatment. The exertion tolerance test consists of measuring the maximum distance travelled (in-toto activity; FIGS. 1A and 1B). Furthermore, measurements of the maximum absolute isometric strength of the tibialis anterior muscle (in-situ activity; FIGS. 2A and 2B) were made after two months of treatment. The two-month oral treatment consists of force-feeding for five days a week and in drinking water two days a week. An assessment of in-situ contractility of the tibialis anterior muscle is carried out at the end of the protocol, i.e. after two months of treatment. […] The strength is measured during contractions in response to electrical stimulation (frequency of 75-150 Hz, duration of 500 ms). […] The maximum absolute isometric tetanic strength is measured.

[3] = test system: myh7 (beta myosin heavy chain); test: Heart mRNA expression of hypertrophy marker myh7 (semi-quantitative PCR); assay type: in vivo, mouse; conditions: mdx mice, 50 mg/kg*day, two months; p<0.01
Experimental: Twelve-week-old […] gene pool (wild mice referred to as “C57” in the figures) and […] mdx (mouse model of Duchenne muscular dystrophy, referred to as “mdx” in the figures) male mice, produced at Charles Rivers, were used. Two groups of mdx were chronically exposed per os either to BIO101 (number of mice n=9) or to BIO103 (number of mice n=9) at a dose of 50 mg/kg*day. A group of C57 mice (number of mice n=5) and a group of mdx mice (number of mice n=15) received the vehicle, i.e. no treatment. The animals of all of the groups were tested for their functional capacity (exertion tolerance test) after two months of treatment. The exertion tolerance test consists of measuring the maximum distance travelled (in-toto activity; FIGS. 1A and 1B). […] The extract RNA is quantified by spectrophotometry then the quality thereof is verified and validated with the Experion RNA StdSens Analysis Kit (Bio-Rad). […] Finally, semi-quantitative PCR analysis was carried out using SYBR® Green (Roche), a DNA intercalating agent and a LightCycler® 480 Real Time PCR (Roche) apparatus on 384-well plates. The molecular markers measured are as follows: • CTGF and collagen I: connective tissue growth factor (CTGF) is associated with healing and with many pathological fibrotic processes including DMD (Brigstock 2010; Song Y. 2017). […]

Row | SMILES | improvement of overall physical performances (in-toto activity) [1] | improvement of the distance travelled compared to untreated mdx animals (vehicle) [1] | increase in the maximum absolute isometric strength of the tibialis anterior muscle compared to mdx animals receiving the vehicle [2] | expression of myh7 in heart compared to mdx animals receiving the vehicle [3]
1 | CC(C)(O)CC[C@@H](O)[C@](C)(O)[C@H]1CC[C@@]2(O)C3=CC(=O)[C@@H]4C[C@@H](O)[C@@H](O)C[C@]4(C)[C@H]3CC[C@]12C [BIO101, 20-hydroxyecdysone] | 2.4 fold | +136% | +15.3% | significantly reduces
2 | CCSCC(=O)[C@H]1CC[C@@]2(O)C3=CC(=O)[C@@H]4C[C@@H](O)[C@@H](O)C[C@]4(C)C3CC[C@]12C (stereo partly drawn) [BIO103, (2S,3R,5R,10R,13R,14S,17S)-17-(2-ethylsulfanylacetyl)-2,3,14-trihydroxy-10,13-dimethyl-2,3,4,5,9,11,12,15,16,17-decahydro-1H-cyclopenta[a]phenanthren-6-one] | 1.7 fold | +67% | +22.5% | significantly reduces
